Assays:
[1] = Gravimetric vapour sorption (GVS) analysis; type: physicochemical; details: 25° C., mass change between 20% and 80% RH in first adsorption scan; mass change larger then 0.2% and smaller then 2%
Description: Gravimetric Vapour Sorption (GVS) Analysis
Measurements were performed on a multi sample instrument SPS-100n (Projekt Messtechnik, Ulm, Germany) operated in stepping mode at 25° C. The sample was allowed to equilibrate at 40% RH before starting a pre-defined humidity program (40-0-95-0-95-40% RH, steps of 5% ΔRH and with a maximal equilibration time of 24 hours per step were applied. About 20 to 30 mg of each sample was used. The hygroscopic classification is done according to the European Pharmacopeia Technical Guide (1999, page 86), e.g., slightly hygroscopic: increase in mass is less than 2% and equal to or greater than 0.2% mass/mass; hygroscopic: increase in mass is less than 15% and equal to or greater than 2% mass/mass. The mass change between 20% relative humidity and 80% relative humidity in the first adsorption scan is considered.

[2] = system: primary cultured rat hepatocytes; experiment: In vitro cytotoxicity in primary cultured rat hepatocytes; type: cell-based; details: for NoEC (no effect concentration) / LCC (lowest cytotoxic concentration): 24 h treatment, highest test concentration 300 μM; for NoEC (no effect concentration): morphology and LDH leakage; for LCC (lowest cytotoxic concentration): morphology grading ≥2 or ≥2-fold increase in LDH leakage
From the text: In Vitro Cytotoxicity in Primary Cultured Rat Hepatocytes
Adult male Wistar rats were narcotized with sodium pentobarbital and hepatocytes were isolated according to a standard procedure, i.e. by in situ perfusion of the liver with a collagenase solution. The viability of the purified hepatocytes, checked by the trypan blue dye exclusion method was greater than 85%. The isolated hepatocytes were resuspended in standard Williams Medium E, without phenol red, supplemented (WME supp.) with transferrin (100 μg/ml), triiodothyronine (10 μg/ml), gentamicin (50 μg/ml), hydrocortison hemisuccinate (13.36 μg/ml), glucagon (5 μg/ml), HEPES (10 mM), inosin (10 μg/ml), insulin (10 μg/ml), streptomycin (100 μg/ml) and penicillin (100 U/ml) and 10% fetal bovine serum (FBS). The cells were plated in collagen-coated 24-well plates at an initial density of 2×10^5 cells/well. After 4 h for attachment to the culture-plates, the medium was aspirated and replaced by fresh WME supp. without FBS containing the test compounds and incubated for 24 h at 37° C. in a […] and 5% CO2 atmosphere. For each experiment, i.e., with each batch of hepatocytes, treatments with the test compounds were done in quadriplicate. Quadriplicate controls (treatment with the vehicle only) were also present on each culture plate.
Stock solutions of the test compounds were prepared in DMSO a few hours before treatment start. Appropriate dilutions of these stock solutions were added to the culture media just prior to the treatment in order to give final concentrations of 0, 3, 10, 30, 100 and 300 μM. The final concentration of the vehicle DMSO was 1% (v/v).
The morphology of the hepatocyte monolayers was monitored by light microscopy after 24 hours of exposure to the test compounds. Treatment related effects are described according to the following grading: • 0 No morphological alterations observed upon treatment when compared to the control cultures • 1-3 Treatment resulting in any morphological changes, e.g. intracellular granulation, vacuolization or cell death. Depending on the severity, these changes were regarded as slight (1), moderate (2) or strong (3). • K Treatment resulting in 100% dead cells and/or the complete detachment of the monolayer yielding a clear cell-free dish.
After 24 h treatment of the hepatocyte cultures, aliquots of culture medium were carefully collected and used for the analysis of lactate dehydrogenase (LDH) activity by spectrophotometry using the LDH cytotoxicity detection kit from Clontech (cat No. 630117, Mountain View, Calif., USA). For each experiment, additional cultures were used for the determination of total intracellular LDH activity at treatment start. For this purpose, 4 wells of cell culture per experiment were washed with cold saline before treatment start, sonicated in fresh medium and the homogenate was analyzed for total LDH activity. Enzyme activities in the culture media were assessed and expressed as percentage of the total activity present in the cultured hepatocytes at the beginning of the treatments.
The lowest cytotoxic concentration (LCC) and the no effect concentration (NoEC) are given for each compound, based on cell morphology and LDH leakage after 24 h treatment. LCC is defined as the lowest concentration of the test compound leading to a clear effect on the cultured rat hepatocytes (morphology grading ≥2 or ≥2-fold increase in LDH leakage). […]

[3] = system: eosinophils (PGD2-induced shape change); experiment: Eosinophil shape change assay with human plasma; type: cell-based; details: 50% human plasma, PGD2 100 nM activation, read-out: Antagonistic activity IC50
Description: Eosinophil Shape Change Assay with Human Plasma After obtaining informed consent, blood samples were drawn by venipuncture according to the protocol approved by the ethics committee of Basel, Switzerland. Polymorphonuclear leukocytes (containing eosinophils, basophils and neutrophils) were isolated using the Polymorphprep™ method (Axis-Shield). In brief, anticoagulated whole blood was layered onto a Polymorphprep gradient (density 1.113 g/ml) and centrifuged at 500 g for 30 min. The polymorphonuclear cell fraction was harvested and depleted for erythrocytes by hypotonic saline lysis. […]
Immediately after fixation with paraformaldehyde, the samples were analyzed by FACSCanto flow cytometer (BD Biosciences) and target cells were identified by their forward-scatter (FSC) and side-scatter (SSC) characteristics. […] Shape change responses, indicative of eosinophil activation, were quantified as the percent of cells with an increased forward-scatter.

Row | SMILES | Hygroscopicity [1] | NoEC (no effect concentration) [2] | LCC (lowest cytotoxic concentration) [2] | IC50 [3] | properties in in-vitro cytotoxicity assay (in words) ([2]; summary statement)
1 | CN(c1ncc(Cl)cn1)[C@H]1CCc2c(c3nc(F)ccc3n2CC(=O)O)C1 [COMPOUND in crystalline form 1, (S)-2-(8-((5-chloropyrimidin-2-yl)(methyl)amino)-2-fluoro-6,7,8,9-tetrahydro-5H-pyrido[3,2-b]indol-5-yl)acetic acid] | Slightly hygroscopic (mass change larger |  |  |  | 
2 | CN(c1ncc(Cl)cn1)[C@H]1CCc2c(c3cc(F)ccc3n2CC(=O)O)C1 [example 9 from WO 2011/117798, reference compound] |  | 30 µM | 300 µM |  | 
3 | CN(c1ncc(Cl)cn1)[C@H]1CCc2c(c3nc(F)ccc3n2CC(=O)O)C1 [COMPOUND, (S)-2-(8-((5-chloropyrimidin-2-yl)(methyl)amino)-2-fluoro-6,7,8,9-tetrahydro-5H-pyrido[3,2-b]indol-5-yl)acetic acid] |  | >300 µM | >300 µM | 3.1 nM | significantly improved properties

— patent US10351560B2, “Crystalline forms” (IDORSIA PHARMACEUTICALS LTD, priority 2015, dated 2019)
